Assays:
[1] = target: Phospholipase A2 (Homo sapiens, UniProt P04054); test: Inhibition of recombinant human secretory Phospholipase A2 (s-PLA2)
[2] = Inhibitory activity against recombinant human secretory Phospholipase A2 (s-PLA2) by phosphatidylcholine/deoxycholate assay(PC/DOC).

Sequence of Phospholipase A2 (P04054 whole entry): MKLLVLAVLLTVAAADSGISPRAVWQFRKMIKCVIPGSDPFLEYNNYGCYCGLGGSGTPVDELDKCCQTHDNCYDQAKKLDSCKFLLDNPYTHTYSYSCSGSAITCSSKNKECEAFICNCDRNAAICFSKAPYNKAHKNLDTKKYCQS

IC50 [1]	IC50 [2]	Structure (SMILES)
160 nM	–	CCC1C(CC(N)=O)=C2C(OCC(=O)O)=CC=CN2/C1=C\c1ccccc1 (configuration not stated) [{1-Carbamoylmethyl-2-ethyl-3-[1-phenyl-meth-(Z)-ylidene]-2,3-dihydro-indolizin-8-yloxy}-acetic acid]
25 nM	130000 nM	CCC1C(CC(N)=O)=C2C(OCC(=O)O)=CC=CN2/C1=C\c1cccc2ccccc12 (configuration not stated) [{1-Carbamoylmethyl-2-ethyl-3-[1-naphthalen-1-yl-meth-(Z)-ylidene]-2,3-dihydro-indolizin-8-yloxy}-acetic acid]
400 nM	–	CCC1C(C(N)=O)=C2C(OCC(=O)O)=CC=CN2/C1=C\c1ccccc1Cc1ccccc1 (configuration not stated) [{3-[1-(2-Benzyl-phenyl)-meth-(Z)-ylidene]-1-carbamoyl-2-ethyl-2,3-dihydro-indolizin-8-yloxy}-acetic acid]
100 nM	420000 nM	CCC1C(CC(N)=O)=C2C(OCC(=O)O)=CC=CN2/C1=C\c1ccccc1-c1ccccc1 (configuration not stated) [{3-[1-Biphenyl-2-yl-meth-(Z)-ylidene]-1-carbamoylmethyl-2-ethyl-2,3-dihydro-indolizin-8-yloxy}-acetic acid]

The remaining lines, values behind:

Structure (SMILES)	IC50 [1]	IC50 [2]
CC1C(CC(N)=O)=C2C(OCCCC(=O)O)=CC=CN2/C1=C\c1ccccc1 (configuration not stated) [4-{1-Carbamoylmethyl-2-methyl-3-[1-phenyl-meth-(Z)-ylidene]-2,3-dihydro-indolizin-8-yloxy}-butyric acid]	910 nM	–
CCc1c(C(=O)C(N)=O)c2c(OCc3ccc4ccccc4n3)cccn2c1Cc1ccccc1-c1ccccc1 [2-[3-Biphenyl-2-ylmethyl-2-ethyl-8-(quinolin-2-ylmethoxy)-indolizin-1-yl]-2-oxo-acetamide]	55 nM	–
CC1C(CC(N)=O)=C2C(OCC(=O)O)=CC=CN2C1Cc1ccccc1 (configuration not stated) [(3-Benzyl-1-carbamoylmethyl-2-methyl-2,3-dihydro-indolizin-8-yloxy)-acetic acid]	12000 nM	–
CCC1C(CC(N)=O)=C2C(OCC(=O)O)=CC=CN2/C1=C\c1cccc(C(F)(F)F)c1 (configuration not stated) [{1-Carbamoylmethyl-2-ethyl-3-[1-(3-trifluoromethyl-phenyl)-meth-(Z)-ylidene]-2,3-dihydro-indolizin-8-yloxy}-acetic acid]	240 nM	–
CCc1c(C(=O)C(N)=O)c2c(OCn3ncnn3)cccn2c1Cc1cccc(Cl)c1 [2-[3-(3-Chloro-benzyl)-2-ethyl-8-(4H-tetrazol-2-ylmethoxy)-indolizin-1-yl]-2-oxo-acetamide]	30 nM	45000 nM

From BindingDB's records for doi:10.1021/jm960395q (Shionogi, 1996)
